Source: US20160257651A1, “NOVEL COMPOUND WITH ANTIBACTERIAL ACTIVITY” (priority 2013, published 2016)
Converted amounts (≈) assume the structure as drawn. Where two headings read alike, the source gives them in different places.

Tests used:
[1] = test system: S. aureus Mu50; experiment: microbe, parasite or virus in culture; format: cell-based, Staphylococcus aureus; settings: for MIC ratio (Mu50 MIC/FDA209P MIC): MIC for S. aureus Mu50 / MIC for S. aureus FDA209P; for MIC: S. aureus Mu50, quinolone-resistant MRSA, ParC S80F, GyrA S84L
Method: (§1) Then, the cell suspension was diluted 500 times with CAMHB mentioned above.

[2] = test system: S. aureus FDA209P (ATCC 6538P); experiment: microbe, parasite or virus in culture; format: cell-based, Staphylococcus aureus; settings: quinolone-susceptible MSSA, ParC 80S, GyrA 84S
Method: as §1

[3] = test system: E. coli strain 1708; experiment: Antibacterial activity against Escherichia coli
Excerpt: (§9) The numerical values in the tables indicate MIC (mg/L), Res means resistant bacterium, and Sus means susceptible bacterium.
(§10) Antibacterial activities against Escherichia coli of the compounds shown Table 19 were examined by the following method.
(§11) After completion of the culture, the cells were suspended in fresh TBS to prepare a cell suspension showing an absorbance of 0.3 at 578 nm.

[4] = test system: E. coli strain 1709; experiment: Antibacterial activity against Escherichia coli
Excerpt: as §9, §10, §11

[5] = test system: E. faecalis 36-15722; experiment: MIC against Enterococcus bacteria; format: cell-based, Enterococcus faecalis; settings: Enterococcus faecalis, 3615722; E. faecalis 36-15722, quinolone-resistant; ParC 80Ile, GyrA 84Ile; read-out: MIC
Method: (§2) Antibacterial activities of the compound J-131CP against Enterococcus bacteria (Enterococcus faecium and Enterococcus faecalis) were examined by the following methods.
(§3) The compound J-131CP and quinolones were prepared in the same manner as that of Test Example 1-1.
(§4) Cell suspensions were prepared in the same manner as that of Test Example 1-1 described in the section of measurement of MIC in Test Example 1-1, except that the Enterococcus bacterium strains mentioned in Table 8 were used instead of Staphylococcus aureus, and MICs of the compound J-131CP and quinolones as control were determined for the strains in the same manner as that of Test Example 1-1 described in the section of measurement of MIC in Test Example 1-1. In Table 8, the amino acid substitution mutations in QRDR of the strains are underlined.

[6] = test system: E. faecalis NCTC12201; experiment: MIC against Enterococcus bacteria; format: cell-based; settings: Enterococcus faecalis, NCTC 12201 / VRE, quinolone-susceptible
Method: as §2, §3, §4

[7] = test system: S. pneumoniae BCLSP37; experiment: MIC against pneumococcus, CAMHB with 5 mass % LHB; format: cell-based, Streptococcus pneumoniae; settings: Streptococcus pneumoniae, BCLSP37, S. pneumoniae BCLSP37, PSSP, quinolone-resistant; ParC 79Phe, GyrA 85Lys; read-out: MIC
Method: (§5) The S. pneumoniae strains used for this test belong to any one of the categories of penicillin-susceptible pneumococcus (penicillin-susceptible Streptococcus pneumoniae, PSSP), penicillin-intermediate pneumococcus (penicillin-intermediate Streptococcus pneumoniae, PISP), and penicillin-resistant pneumococcus (penicillin-resistant Streptococcus pneumoniae, PRSP).
(§6) The lysed horse blood was prepared by adding sterilized water to horse sterile defibered blood (produced by Nippon Bio-Supp. Center) at a ratio of 1:1, subjecting the mixture to freezing and thawing 5 times, then centrifuging the mixture twice at 10,000 rpm for 20 minutes, and filtering the supernatant through a filter.
(§7) The S. pneumoniae strains mentioned in Table 11 were each cultured overnight at 37° C. on a blood agar medium as stationary culture. The blood agar medium was prepared by adding 5 mass % ovine sterile defibered blood (produced by Nippon Bio-Supp. Center) to a heart infusion agar medium (produced by EIKEN CHEMICAL). Each S. pneumoniae strain cultured overnight at 37° C. as stationary culture was further subcultured overnight at 37° C. on fresh blood agar medium as stationary culture. After completion of the culture, cells of each pneumococcus strain were collected with a swab, and suspended in physiological saline, and the suspension was adjusted with physiological saline to show absorbance of 0.08 to 0.13 at 625 nm as measured with an absorbance meter (produced by Amersham), and further diluted 200 times with CAMHB containing 5 mass % LHB.
(§8) In Table 11, the amino acid substitution mutations in QRDR of the strains are underlined.

[8] = test system: S. pneumoniae KBSP11; experiment: MIC against pneumococcus, CAMHB with 5 mass % LHB; format: cell-based, Streptococcus pneumoniae; settings: Streptococcus pneumoniae, PRSP
Method: as §5, §6, §7, §8

[9] = Staphylococcus aureus, ATCC 6538P / FDA209P / MSSA, read-out: MIC

Compound | MIC ratio (Mu50 MIC/FDA209P MIC) [1] | MIC [1] [µg/mL] | MIC [2] [µg/mL] | MIC ([1]; Staphylococcus aureus, MRSA) [µg/mL] | MIC [2, 9] [µg/mL] | MIC [3] [µg/mL] | MIC [4] [µg/mL] | other results
9-(hydroxyphenyl)-6-methyloxazolo[5,4,3-ij]quinolin-4(2H)-one [J-2.1.1] | 0.5 | 16 | 32 |  |  |  |  | 
O=c1cc(CO)c2ccc(-c3ccc(O)cc3)c3c2n1CO3 [J-2.1.2, 6-(hydroxymethyl)-9-(4-hydroxyphenyl)oxazolo[5,4,3-ij]quinolin-4(2H)-one] | 0.125 |  |  | 16 (≈ 54.2 µM) | 128 (≈ 433 µM) |  |  | 
Cn1c(=O)cc(CO)c2ccc3c(c21)OCO3 [J-103, 6-(hydroxymethyl)-9-methyl-9-hydro-2H-1,3-dioxoleno[4,5-h]quinolin-8-one] | 0.125 | 16 (≈ 68.6 µM) | 128 (≈ 549 µM) |  |  |  |  | 
O=c1cc(CO)c2ccc(-c3ccc(O)cc3)cc2n1C1CC1 [J-121Cp, 1-cyclopropyl-4-hydroxymethyl-7-(4-hydroxy-phenyl)-1H-quinolin-2-one] | 0.5 |  |  | 0.5 (≈ 1.63 µM) | 1 (≈ 3.25 µM) |  |  | 
Cc1cc(=O)n(C)c2cc(-c3ccc(O)cc3)ccc12 [J-121Me] | 0.0313 |  |  | 4 (≈ 15.1 µM) | 128 (≈ 482 µM) |  |  | 
CC(=O)N1COc2c1ccc1c(CO)cc(=O)n(C)c21 [J-125a, 3-acetyl-6-(hydroxymethyl)-9-methyl-8-oxo 9-hydro-2H-1,3-oxazolino[4,5-h]quinoline] | 0.125 | 16 (≈ 58.3 µM) | 128 (≈ 467 µM) |  |  |  |  | 
Cn1c(=O)cc(CO)c2cc(F)c(-c3ccc(O)cc3)cc21 [J-131, 6-fluoro-4-(hydroxymethyl)-7-(4-hydroxyphenyl)-1-methylhydroquinolin-2-one] | 0.25 | 4 (≈ 13.4 µM) | 16 (≈ 53.5 µM) |  |  |  |  | 
CC(=O)OCc1cc(=O)n(C2CC2)c2cc(-c3ccc(O)cc3)c(F)cc12 [J-131ACp, [1-cyclopropyl-6-fluoro-7-(4-hydroxyphenyl)-2-oxo-4-hydroquinolyl]methyl.acetate] | 0.0625 |  |  | 4 | 64 | 128 | 128 | 
CCn1c(=O)cc(CO)c2cc(F)c(-c3ccc(O)cc3)cc21 [J-131E, 1-ethyl-6-fluoro-4-(hydroxymethyl)-7-(4-hydroxyphenyl)hydroquinolin-2-one] | 0.25 | 0.5 (≈ 1.6 µM) | 2 (≈ 6.38 µM) |  |  |  |  | 
Cn1c(=O)cc(CO)c2cc(F)c(-c3ccc(N)cc3)cc21 [J-132, 7-(4-aminophenyl)-6-fluoro-4-(hydroxymethyl)-1-methylhydroquinolin-2-one] | 0.0625 | 8 (≈ 26.8 µM) | 128 (≈ 429 µM) |  |  |  |  | 
Nc1ccc(-c2cc3c(cc2F)c(COC(=O)CC(=O)O)cc(=O)n3C2CC2)cc1 [J-135, 2-({[7-(4-aminophenyl)-1-cyclopropyl-6-fluoro-2-oxo-4-hydroquinolyl]methyl}oxycarbonyl)acetic acid] | 1 | 8 (≈ 19.5 µM) | 8 (≈ 19.5 µM) |  |  |  |  | 
Nc1ccc(-c2cc3c(cc2F)c(COC(=O)CCC(=O)O)cc(=O)n3C2CC2)cc1 [J-136, 3-({[7-(4-aminophenyl)-1-cyclopropyl-6-fluoro-2-oxo-4-hydroquinolyl]methyl}oxycarbonyl)propanoic acid] | 0.25 | 8 (≈ 18.8 µM) | 32 (≈ 75.4 µM) |  |  |  |  | 
CCC(=O)OCc1cc(=O)n(C2CC2)c2cc(-c3ccc(N)cc3)c(F)cc12 [J-138, [7-(4-aminophenyl)-1-cyclopropyl-6-fluoro-2-oxo-4-hydroquinolyl]methyl propanoate] | 1 | 2 (≈ 5.26 µM) | 2 (≈ 5.26 µM) |  |  |  |  | 
Cc1cc2c(CO)cc(=O)n(C3CC3)c2cc1-c1ccc(O)cc1 [J-140, 1-cyclopropyl-4-(hydroxymethyl)-7-(4-hydroxyphenyl)-6-methylhydroquinolin-2-one] | 0.25 | 0.25 (≈ 0.778 µM) | 1 (≈ 3.11 µM) |  |  |  |  | 
CC(O)c1cc(=O)n(C2CC2)c2cc(-c3ccc4c(c3)CNC4C)c(F)cc12 (stereo not drawn) [J-144M] |  |  |  | 4 (≈ 10.6 µM) | 0.5 (≈ 1.32 µM) | 128 (≈ 338 µM) | 4 (≈ 10.6 µM) | MIC [5]: 2 µg/mL (≈ 5.28 µM); MIC [6]: 1 µg/mL (≈ 2.64 µM)
CN1CCN(c2cc3c(cc2F)c(CO)cc(=O)n3C2CC2)CC1 [J-146, 1-cyclopropyl-6-fluoro-4-(hydroxymethyl)-7-(4-methylpiperazin-1-yl)quinolin-2(1H)-one] | 1 |  |  | 16 (≈ 48.3 µM) | 16 (≈ 48.3 µM) |  |  | 
O=c1cc(CO)c2cc(F)c(N3CCC(O)CC3)cc2n1C1CC1 [J-147, 1-cyclopropyl-6-fluoro-4-(hydroxymethyl)-7-(4-hydroxypiperidin-1-yl)quinolin-2(1H)-one] | 0.5 |  |  | 16 (≈ 48.1 µM) | 32 (≈ 96.3 µM) |  |  | 
C[C@H]1COc2c(-c3ccc(O)cc3)c(F)cc3c(CO)cc(=O)n1c23 [J-149A] |  |  |  | 0.5 (≈ 1.46 µM) | 0.25 (≈ 0.732 µM) | 128 (≈ 375 µM) | 16 (≈ 46.9 µM) | 
Cc1cc(=O)n2c3c(c(-c4ccc(O)cc4)c(F)cc13)OCC2C (stereo not drawn) [J-149d] |  |  |  | 0.5 (≈ 1.54 µM) | 1 (≈ 3.07 µM) | 128 (≈ 393 µM) | 128 (≈ 393 µM) | 
CCc1cc(=O)n(C2CC2)c2cc(-c3ccc(O)cc3)c(F)cc12 [J-150, 1-cyclopropyl-4-ethyl-6-fluoro-7-(4-hydroxyphenyl)hydroquinolin-2-one] | 0.0625 | 0.25 (≈ 0.773 µM) | 4 (≈ 12.4 µM) |  |  |  |  | 
O=c1cc(CO)c2cc(Cl)c(-c3ccc(O)cc3)cc2n1C1CC1 [J-152] |  |  |  | 0.25 (≈ 0.731 µM) | 1 (≈ 2.93 µM) | 128 (≈ 374 µM) | 128 (≈ 374 µM) | 
COc1c(-c2ccc(O)cc2)ccc2c(CO)cc(=O)n(C3CC3)c12 [J-157, 1-cyclopropyl-8-methoxyl-4-(hydroxymethyl)-7-(4-hydroxyphenyl)hydroquinolin-2-one] | 0.5 | 2 (≈ 5.93 µM) | 4 (≈ 11.9 µM) |  |  |  |  | 
O=c1cc(O)c2ccc(-c3ccc(O)cc3)c(OC(F)F)c2n1C1CC1 [J-158] |  |  |  | 4 (≈ 11.1 µM) | 8 (≈ 22.3 µM) | 128 (≈ 356 µM) | 128 (≈ 356 µM) | 
CNc1ncc(-c2ccc3c(CO)cc(=O)n(C4CC4)c3c2)cc1C [J-165] |  |  |  | 8 (≈ 23.9 µM) | 4 (≈ 11.9 µM) | 128 (≈ 382 µM) | 128 (≈ 382 µM) | 
O=C(O)c1c(CO)c2cc(F)c(-c3ccc(O)cc3)cc2n(C2CC2)c1=O [J-169] |  |  |  | 8 (≈ 21.7 µM) | 8 (≈ 21.7 µM) | 128 (≈ 347 µM) | 16 (≈ 43.3 µM) | 
NC(=O)c1cc(=O)n(C2CC2)c2cc(-c3ccc(O)cc3)c(F)cc12 [J-173] |  |  |  | 2 (≈ 5.91 µM) | 8 (≈ 23.6 µM) | 128 (≈ 378 µM) | 128 (≈ 378 µM) | MIC [7]: 8 µg/mL (≈ 23.6 µM); MIC [8]: 8 µg/mL (≈ 23.6 µM)
COCc1cc(=O)n(C2CC2)c2cc(-c3ccc(O)cc3)c(F)cc12 [J-175] |  |  |  | 0.5 (≈ 1.47 µM) | 1 (≈ 2.95 µM) | 128 (≈ 377 µM) | 128 (≈ 377 µM) | MIC [7]: 8 µg/mL (≈ 23.6 µM); MIC [8]: 32 µg/mL (≈ 94.3 µM)
Nc1c(CO)c2cc(F)c(-c3ccc(O)cc3)cc2n(C2CC2)c1=O [J-179] |  |  |  | 1 (≈ 2.94 µM) | 0.5 (≈ 1.47 µM) | 128 (≈ 376 µM) | 128 (≈ 376 µM) | 
